BindingDB's records for doi:10.1016/j.bmcl.2009.03.043 (Vertex Pharmaceuticals, 2009)

How the values were obtained:
[1] = molecular target: 3-phosphoinositide-dependent protein kinase 1 (Homo sapiens) (UniProt O15530); test: Inhibition of PDK1
[2] = molecular target: Tyrosine-protein kinase SYK (Homo sapiens) (UniProt P43405); test: Inhibition of SYK
[3] = molecular target: Mitogen-activated protein kinase 10 (Homo sapiens, UniProt P53779); test: Inhibition of JNK3 by spectrophotometric coupled enzyme assay
Sequence of Mitogen-activated protein kinase 10 (P53779 whole entry): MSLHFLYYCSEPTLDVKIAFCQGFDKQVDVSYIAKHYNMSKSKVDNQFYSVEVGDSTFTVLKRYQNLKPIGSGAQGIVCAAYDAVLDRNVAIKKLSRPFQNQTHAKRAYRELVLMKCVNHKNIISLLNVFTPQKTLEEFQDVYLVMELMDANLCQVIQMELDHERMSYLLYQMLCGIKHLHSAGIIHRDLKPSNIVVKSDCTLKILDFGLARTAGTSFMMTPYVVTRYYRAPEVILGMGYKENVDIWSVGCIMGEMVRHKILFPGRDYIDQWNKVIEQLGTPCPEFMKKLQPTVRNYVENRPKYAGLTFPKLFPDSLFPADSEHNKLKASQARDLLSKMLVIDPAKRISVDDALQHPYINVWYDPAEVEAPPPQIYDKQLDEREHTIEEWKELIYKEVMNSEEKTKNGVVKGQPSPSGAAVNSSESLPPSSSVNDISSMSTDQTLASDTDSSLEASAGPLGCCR

Structure (SMILES): Cc1ccc2c(c1)N(Cc1cc(F)cc3c1OCOC3)C(=O)C2N=O (configuration not stated) [1-((6-fluoro-4H-benzo[d][1,3]dioxin-8-yl)methyl)-3-(hydroxyimino)-6-methylindolin-2-one]
- Ki [1]: > 30 µM
- Ki [2]: > 30 µM

Structure (SMILES): Cc1ccc2c(c1)C(N=O)C(=O)N2Cc1ccccc1 (configuration not stated) [1-benzyl-3-(hydroxyimino)-5-methylindolin-2-one]
- Ki [3]: > 10 µM

Structure (SMILES): O=NC1C(=O)N(Cc2ccccc2)c2ccccc21 (configuration not stated) [1-benzyl-3-(hydroxyimino)indolin-2-one]
- Ki [3]: > 10 µM

Structure (SMILES): O=NC1C(=O)N(Cc2ccccc2)c2ccc(F)cc21 (configuration not stated) [1-benzyl-5-fluoro-3-(hydroxyimino)indolin-2-one]
- Ki [3]: > 10 µM

Structure (SMILES): O=NC1C(=O)N(Cc2ccccc2[N+](=O)[O-])c2ccccc21 (configuration not stated) [3-(hydroxyimino)-1-(2-nitrobenzyl)indolin-2-one]
- Ki [3]: > 10 µM

Structure (SMILES): Cc1cccc(CN2C(=O)C(N=O)c3cc(C)ccc32)c1 (configuration not stated) [3-(hydroxyimino)-5-methyl-1-(3-methylbenzyl)indolin-2-one]
- Ki [3]: > 10 µM
